Results taken from patent US8859582B2, “Bicyclic heterocyclic compounds as protein tyrosine kinase inhibitors” (Astex Therapeutics Limited, priority 2007, dated 2014).

Tested on: LP-1 cell line
Test: Cell-based pERK ELISA, LP-1 cells
Conditions: LP-1 human multiple myeloma cells, FGF-1/Heparin stimulation; read-out: IC50 against the LP-1 cell line (pERK ELISA)
Procedure: Enzyme buffer A: 8 mM MOPS, pH 7.0, 0.2 mM EDTA, 10 mM MgAcetate Enzyme buffer B: 8 mM MOPS, pH 7.0, 0.2 mM EDTA, 2.5 mM MnCl2, 10 mM MgAcetate Enzyme buffer C: 8 mM Mops, pH 7.0, 0.2 mM EDTA, 10 mM MnCl2, 10 mM MgAcetate. Cell-Based pERK ELISA Method
LP-1 or JIM-1 multiple myeloma cells were seeded in 96 well plates at 1×10^6 cells/ml in 200 μl per well in serum free media. HUVEC cells were seeded at 2.5×10^5 cells/ml and allowed to recover for 24 h prior to transfer to serum free media. Cells were incubated for 16 h at 37° C. prior to the addition of a test compound for 30 minutes. Test compounds were administered at a 0.1% final DMSO concentration. Following this 30 minute incubation a FGF-1/Heparin (FGF-1 at 100 ng/ml final and Heparin at 100 ug/ml) mixture or VEGF^165 (100 ug/ml) was added to each of the wells for a further 5 minutes. The media was removed and 50 ul ERK ELISA lysis buffer (R and D Systems DuoSet ELISA for pERK and Total ERK #DYC-1940E, DYC-1018E) added. ELISA plates and standards were prepared according to the standard DuoSet protocols and the relative amounts of pERK to total ERK in each sample calculated according to the standard curve.
In particular, compounds of the invention were tested against the LP-1 cell line (DSMZ no.: ACC 41) derived from human multiple myeloma.

In the case of `O=C(c1ccn2c(-c3cccc(Nc4nncs4)c3)cnc2c1)N1CCC1` [Example 2, Azetidin-1-yl-{3-[3-([1,3,4]thiadiazol-2-ylamino)-phenyl]-imidazo[1,2-a]pyridine-7-yl}-methanone], the IC50 is reported as under 1 µM.
